Patent publication US7691842B2, “Tricyclic 6-alkylidene-penems as β-lactamase inhibitors” (Wyeth LLC, priority 2002, dated 2010)
Counter-ions that a name gives are not always drawn.

Experiments:
class B enzyme CcrA = class B enzyme CcrA (Bacteroides fragilis, UniProt P25910); assay: β-Lactamase inhibition, IC50 determination (nitrocefin, spectrophotometric); assay type: biochemical; details: enzyme 1.2 nM; 10 min preincubation at 25° C.; nitrocefin 50 μg/ml; 50 mM PO4, pH 7.0; read-out: IC50 (nM) Class B Ccr
Protocol: (§1) IC50 Determination for the Penem Inhibitor
(§2) β-Lactamase inhibitory activity of the penem inhibitors was determined spectrophotometrically as described by Bush et al., [Bush, K., Macalintal, C., Rasmussen, B. A., Lee, V. and Yang, Y. Antimicrobial Agents and Chemotherapy 1993, 37, 851]. Homogeneously purified class A β-lactamases TEM-1 from E. Coli and Imi-1 from Enterobacter cloacae, class B enzyme CcrA from Bacteroides fragilis and class C enzyme AmpC from Enterobacter cloaca were employed in the assay. The enzyme concentrations for TEM-1, Imi-1, CcrA and AmpC were 4.3, 7.1, 1.2 and 2.1 nM, respectively. A wide range of inhibitor concentrations were prepared in 50 mM PO4, pH 7.0 to include the possible IC50 values. The substrate used to initiate the enzyme reaction was nitrocefin at 50 μg/ml in the same buffer as the inhibitor. Initially the enzyme and inhibitor (20 μl each) were preincubated for 10 minutes at 25° C. prior to the addition of 160 μl volume of nitrocefin. Initial rates of hydrolysis were monitored for 5 minutes at 495 nm using a Molecular Devices Spectra Max 250 with kinetic protocol of SoftMax Program. Readings from the Spectra Max 250 were exported and transferred to Microsoft Excel. The percent of inhibition of each inhibitor concentration was calculated based on the control enzyme activity. The inhibitor concentration that caused a 50% reduction in the enzymatic activity (IC50) was determined graphically.

[1] = target: class A β-lactamase Imi-1 (Enterobacter cloacae, UniProt Q46991); assay: as above; assay type: biochemical
Protocol: as §1, §2

class C enzyme AmpC = class C enzyme AmpC (Enterobacter cloacae, UniProt P05364); assay: biochemical; parameters: species or system Enterobacter cloaca
Protocol: as §1, §2

[2] = target: class A β-lactamase TEM-1 (Escherichia coli, UniProt P62593); assay: β-Lactamase inhibition, IC50 determination (nitrocefin, spectrophotometric); assay type: biochemical, E. Coli
Protocol: as §1, §2

E. Coli GC2847 (TEM-1) = assay: Antimicrobial susceptibility testing, microbroth dilution MIC of piperacillin + inhibitor; assay type: cell-based; details: piperacillin combined with constant 4 μg/ml inhibitor; Inc: 35° C. for 18 hours
Protocol: (§3) Antimicrobial susceptibility testing. The in vitro activities of the antibiotics were determined by the microbroth dilution method as recommended by the National Committee for Clinical Laboratory Standards (NCCLS). (NCCLS. 2000. Methods for Dilution Antimicrobial Susceptibility Tests for Bacteria That Grow Aerobically; Approved Standards: M7-A5, vol. 19. National Committee for Clinical Laboratory Standards, Villanova, Pa.). Mueller-Hinton it broth (MHBII)(BBL Cockeysville, Md.), was used for the testing procedure. Microtiter plates containing 50 μl per well of two-fold serial dilutions of piperacillin combined with a constant amount (4 μg/ml) of a B-lactamase inhibitor (final concentration) were inoculated with 50 μl of inoculum to yield the appropriate density (10^5 CFU/ml) in 100 μl. The plates were incubated for 18-22 hours at 35° C. in ambient air.

E. Coli GC2894 (Ampc) = assay: as above; assay type: cell-based; details: piperacillin combined with constant 4 μg/ml inhibitor; Inc: 35° C. for 18 hours
Protocol: as §3

[3] = test system: S. Marcescens GC1781 Sme-1 + Ampc; assay: as above; assay type: cell-based; details: piperacillin combined with constant 4 μg/ml inhibitor; Inc: 35° C. for 18 hours
Protocol: as §3

E. Coli GC2844 = assay: as above; assay type: cell-based; details: piperacillin combined with constant 4 μg/ml inhibitor; Inc: 35° C. for 18 hours
Protocol: as §3

[4] = test system: P. aeruginos GC1764 (Ampc); assay: as above; assay type: cell-based; details: piperacillin combined with constant 4 μg/ml inhibitor; Inc: 35° C. for 18 hours
Protocol: as §3

E. Cloacae GC1477 (Ampc) = assay: as above; assay type: cell-based; details: piperacillin combined with constant 4 μg/ml inhibitor; Inc: 35° C. for 18 hours
Protocol: as §3

E. Coli GC2203 = assay: as above; assay type: cell-based; details: piperacillin combined with constant 4 μg/ml inhibitor; Inc: 35° C. for 18 hours
Protocol: as §3

E. Coli GC2920 (IRT-2) = assay: as above; assay type: cell-based; details: piperacillin combined with constant 4 μg/ml inhibitor; Inc: 35° C. for 18 hours
Protocol: as §3

Chain of class B enzyme CcrA (P25910 19-249): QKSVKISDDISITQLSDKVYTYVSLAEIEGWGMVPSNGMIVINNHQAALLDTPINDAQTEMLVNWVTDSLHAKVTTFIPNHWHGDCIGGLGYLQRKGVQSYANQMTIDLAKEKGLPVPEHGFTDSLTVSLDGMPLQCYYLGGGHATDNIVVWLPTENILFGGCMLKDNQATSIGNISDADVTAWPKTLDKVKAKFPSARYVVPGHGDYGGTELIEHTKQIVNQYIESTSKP
Chain of class A β-lactamase TEM-1 (P62593 24-286 limits assumed): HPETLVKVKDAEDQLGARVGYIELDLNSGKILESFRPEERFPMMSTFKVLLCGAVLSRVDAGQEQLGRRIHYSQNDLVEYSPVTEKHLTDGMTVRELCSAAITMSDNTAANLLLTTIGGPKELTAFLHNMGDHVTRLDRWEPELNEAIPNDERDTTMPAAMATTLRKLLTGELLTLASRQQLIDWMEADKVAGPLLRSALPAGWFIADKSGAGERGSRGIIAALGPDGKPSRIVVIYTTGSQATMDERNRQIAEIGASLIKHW
Chain of class C enzyme AmpC (P05364 21-381): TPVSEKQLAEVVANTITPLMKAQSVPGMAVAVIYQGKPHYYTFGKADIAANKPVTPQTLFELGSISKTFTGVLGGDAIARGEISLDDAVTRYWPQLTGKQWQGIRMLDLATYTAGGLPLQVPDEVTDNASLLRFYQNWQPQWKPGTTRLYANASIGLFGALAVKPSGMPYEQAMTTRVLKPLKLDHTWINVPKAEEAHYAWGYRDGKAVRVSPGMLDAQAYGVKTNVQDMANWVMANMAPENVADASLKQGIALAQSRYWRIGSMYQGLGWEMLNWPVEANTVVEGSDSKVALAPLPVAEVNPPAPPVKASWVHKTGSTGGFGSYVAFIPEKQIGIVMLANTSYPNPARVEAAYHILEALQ
Chain of class A β-lactamase Imi-1 (Q46991 entry or part of it): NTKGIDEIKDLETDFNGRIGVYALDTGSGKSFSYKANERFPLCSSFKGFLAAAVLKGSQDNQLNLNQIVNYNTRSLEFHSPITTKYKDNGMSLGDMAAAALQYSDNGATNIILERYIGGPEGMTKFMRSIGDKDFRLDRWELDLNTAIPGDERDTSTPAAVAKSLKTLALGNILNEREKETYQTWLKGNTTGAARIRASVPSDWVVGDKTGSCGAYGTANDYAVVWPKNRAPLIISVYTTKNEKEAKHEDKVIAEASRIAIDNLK

O=C(O)C1=CS[C@@H]2/C(=C/c3ccc4c(c3)N(Cc3ccccc3)C(=O)c3ccccc3O4)C(=O)N12 [Example 9, (5R,6E)-6-[(10-benzyl-ii-oxo-10,11-dihydrodibenzo[b,f][1,4]oxazepin-8-yl)methylene]-7-oxo-4-thia-1-azabicyclo[3.2.0]hept-2-ene-2-carboxylic Acid]
IC50 (class B enzyme CcrA): 220 nM
IC50 [1]: 3.6 µM
IC50 (class C enzyme AmpC): 0.0045 µM
IC50 [2]: 0.0035 µM

Cc1cccc2sc3nc(/C=C4/C(=O)N5C(C(=O)O)=CS[C@H]45)cn3c12 [Example 13]
IC50 (class B enzyme CcrA): 228 nM
IC50 [1]: 0.102 µM
IC50 (class C enzyme AmpC): 0.0016 µM
IC50 [2]: 0.0087 µM

O=C(O)C1=CS[C@@H]2/C(=C\c3cn4nc5c(c4s3)CCC5)C(=O)N12 [Example 18, (5R),(6Z)-6-(7,8-dihydro-6H-cyclopenta[3,4]pyrazolo[5,1-b][1,3]thiazol-2-ylmethylene)-7-oxo-64-thia-1-azabicyclo[3.2.0]hept-2-ene-2-carboxylic acid]
Minimal Inhibitory Concentration E. Coli GC2847 (TEM-1) (E. Coli GC2847 (TEM-1)): >64 µg/mL
Minimal Inhibitory Concentration E. Coli GC2894 (Ampc) (E. Coli GC2894 (Ampc)): >64 µg/mL
Minimal Inhibitory Concentration S. Marcescens GC1781 Sme-1 + Ampc [3]: 4 µg/mL
Minimal Inhibitory Concentration E. Coli GC2844 (E. Coli GC2844): 2 µg/mL
Minimal Inhibitory Concentration P. aeruginos GC1764 (Ampc) [4]: 64 µg/mL
Minimal Inhibitory Concentration E. Cloacae GC1477 (Ampc) (E. Cloacae GC1477 (Ampc)): >64 µg/mL
Minimal Inhibitory Concentration E. Coli GC2203 (E. Coli GC2203): 4 µg/mL
Minimal Inhibitory Concentration E. Coli GC2920 (IRT-2) (E. Coli GC2920 (IRT-2)): 4 µg/mL

O=C(O)C1=CS[C@@H]2/C(=C\c3cc4oc5c(n4n3)CCOC5)C(=O)N12 [Example 31, (5R,6Z)-6-(7,8-dihydro-5H-pyrano[4,3-d]pyrazolo[5,1-b][1,3]oxazol-2-ylmethylene)-7-oxo-4-thia-1-azabicyclo[3.2.0]hept-2-ene-2-carboxylic acid, sodium salt]
IC50 (class B enzyme CcrA): 130 nM
IC50 [1]: 0.14 µM
IC50 (class C enzyme AmpC): 0.004 µM
IC50 [2]: 0.0043 µM

COc1nc2nc(/C=C3/C(=O)N4C(C(=O)O)=CS[C@H]34)cn2c2c1CCC2 [Example 26, (5R,6Z)-6-[(5-methoxy-7,8-dihydro-6H-cyclopenta[e]imidazo[1,2-a]pyrimidin-2-yl)methylene]-7-oxo-4-thia-1-azabicyclo[3.2.0]hept-2-ene-2-carboxylic acid, sodium salt]
IC50 (class B enzyme CcrA): 420 nM
IC50 [1]: 0.063 µM
IC50 (class C enzyme AmpC): 0.01 µM
IC50 [2]: 0.048 µM

O=C(O)C1=CS[C@@H]2/C(=C\c3cn4c(nc5ccccc54)s3)C(=O)N12 [Example 17, (5R),(6Z)-7-oxo-6-([1,3]thiazolo[3,2-a]benzimidazol-2-ylmethylene)-4-thia-1-azabicyclo[3.2.0]hept-2-ene-2-carboxylic acid]
Minimal Inhibitory Concentration E. Coli GC2847 (TEM-1) (E. Coli GC2847 (TEM-1)): 64 µg/mL
Minimal Inhibitory Concentration E. Coli GC2894 (Ampc) (E. Coli GC2894 (Ampc)): >64 µg/mL
Minimal Inhibitory Concentration S. Marcescens GC1781 Sme-1 + Ampc [3]: 8 µg/mL
Minimal Inhibitory Concentration E. Coli GC2844 (E. Coli GC2844): 2 µg/mL
Minimal Inhibitory Concentration P. aeruginos GC1764 (Ampc) [4]: 32 µg/mL
Minimal Inhibitory Concentration E. Cloacae GC1477 (Ampc) (E. Cloacae GC1477 (Ampc)): >64 µg/mL
Minimal Inhibitory Concentration E. Coli GC2203 (E. Coli GC2203): 2 µg/mL
Minimal Inhibitory Concentration E. Coli GC2920 (IRT-2) (E. Coli GC2920 (IRT-2)): 4 µg/mL

Cn1c2ccccc2n2cc(/C=C3/C(=O)N4C(C(=O)O)=CS[C@H]34)nc12 [Example 20, (5R),(6Z)-8-[(9-methyl-9H-imidazo[1,2-a]benzimidazol-2-yl)methylene]-7-oxo-4-thia-1-azabicyclo[3.2.0]hept-2-ene-2-carboxylic acid]
Minimal Inhibitory Concentration E. Coli GC2847 (TEM-1) (E. Coli GC2847 (TEM-1)): >64 µg/mL
Minimal Inhibitory Concentration E. Coli GC2894 (Ampc) (E. Coli GC2894 (Ampc)): 32 µg/mL
Minimal Inhibitory Concentration S. Marcescens GC1781 Sme-1 + Ampc [3]: 2 µg/mL
Minimal Inhibitory Concentration E. Coli GC2844 (E. Coli GC2844): 4 µg/mL
Minimal Inhibitory Concentration P. aeruginos GC1764 (Ampc) [4]: 32 µg/mL
Minimal Inhibitory Concentration E. Cloacae GC1477 (Ampc) (E. Cloacae GC1477 (Ampc)): >64 µg/mL
Minimal Inhibitory Concentration E. Coli GC2203 (E. Coli GC2203): 2 µg/mL
Minimal Inhibitory Concentration E. Coli GC2920 (IRT-2) (E. Coli GC2920 (IRT-2)): 4 µg/mL

O=C(O)C1=CS[C@@H]2/C(=C\c3cn4c(cnc5ccccc54)n3)C(=O)N12 [Example 6, (5R),(6Z)-6-(Imidazo[1,2-a]quinoxaline-2-ylmethylene)-7-oxo-4-thia-1-azabicyclo[3.2.0]hepto-2-ene-2-carboxylic acid, sodium salt]
IC50 (class B enzyme CcrA): 350 nM
IC50 [1]: 0.21 µM
IC50 (class C enzyme AmpC): 0.0012 µM
IC50 [2]: 0.0025 µM
